Reference: PMC5161367, “Discovery of Novel Small Molecule Inhibitors of VEGF Expression in Tumor Cells Using a Cell-Based High Throughput Screening Platform” (PLoS ONE, 2016)

Assays:
[1] = Cytotoxicity, CellTiter-Glo, HeLa cells; assay type: cell-based; conditions: human
Experimental: (§1) The cytotoxicity of compounds was determined in peripheral blood mononuclear cells (PBMCs) and primary human foreskin fibroblasts, both purchased frozen from AllCells, Inc, CA. Cells were incubated with test compound at various concentrations in triplicate for a period of 3 days in 96-well plates. The cytotoxicity or inhibition of cell proliferation was determined using a standard CellTiter-Glo® Luminescent Cell Viability Assay (Promega, Madison, WI) that measures total cellular adenosine triphosphate (ATP) concentration as a function of cell viability. In addition, cytotoxicity assays were also performed in HeLa cells in parallel with VEGF ELISA to ensure that the inhibition of VEGF production in HeLa cells was not due to cytotoxicity.
The IC50 values for compounds that inhibited VEGF production were determined next. A seven-point dose-response analysis was performed for each of the 137 compounds. In parallel, a dose-response cytotoxicity assay was performed to determine the CC50 (the concentration resulting in 50% cellular growth inhibition or cytotoxicity) under the same conditions as VEGF ELISA to determine whether hypoxia-induced VEGF inhibition was due to cytotoxicity.

[2] = Cytotoxicity, CellTiter-Glo, PBMC; assay type: cell-based; conditions: human, peripheral blood mononuclear cells (PBMC)
Experimental: as §1

[3] = tested on: VEGF 5'- and 3'-UTR luciferase reporter; assay: VEGF GEMS luciferase reporter (B9 cells, VEGF UTRs) vs control reporter (B12 cells); assay type: cell-based, human
Experimental: Luciferase assays were conducted using the Bright-Glo assay (Promega, Madison, WI), following the manufacturer’s instructions. The plates were incubated for 5 minutes at room temperature with gentle shaking before determining the level of luciferase activity. For assays done in 96-well plates, luciferase activity was monitored using a Topcount microplate reader (Perkin Elmer, USA). For HTS and assays done in 384-well plates, luciferase activity was determined using a ViewLux microplate reader (Perkin Elmer, USA).
A high throughput screen (HTS) was performed with a stable cell line designated B9 that was generated by transfecting the VEGF GEMS™ vector (Fig 1a) into HEK293 cells. Log phase growing B9 cells were trypsinized and re-suspended in growth medium containing 1x penicillin and streptomycin (Invitrogen) to form a single-cell suspension. Cell counts were determined using a hemocytometer, with cell viability greater than 98% for all assays. B9 cells were seeded (10,000 cells per well) in 384-well plates and incubated with test compound at a final concentration of 7.5 μM in duplicate in a 40 μL reaction. The final concentration of DMSO was 0.5%. A serial dilution (0.078 to 20 μM) of puromycin was included in each plate as positive control for the nonspecific inhibition of translation. After incubation for 20 hours at 37°C, 5% CO2, 20 μL of Bright-Glo substrate (Promega) were added to each well. Plates were incubated for 5 minutes at room temperature with gentle shaking. Firefly luciferase luminescence was measured on the ViewLux (PerkinElmer). Data were loaded into ActivityBase (IDBS) for analysis. The HTS plate configuration is shown in S1 Fig. The threshold for hits was set at mean + 3x SD (standard deviation). Statistical robustness was assessed by Z’-factor, defined as 1-((3 x (SDblank-control + SDDMSO-control)/(Meanblank-control + MeanDMSO-control)), where the blank control represents assay background and the DMSO control represents total signal from the DMSO treated samples.
To address the possibility that the compounds identified in the screen function by modulating general transcription processes rather than targeting processes regulated by the 5’- and/or 3’-UTRs of VEGF mRNA, we generated an additional cell line, designated as B12 that harbors the luciferase reporter flanked with control UTRs from the plasmid pCDNA3.1 vector instead of those from VEGF mRNA. Compounds that reduce luciferase activity in both cell lines are considered to be general inhibitors of transcription or translation. Therefore, those compounds that inhibit luciferase expression in B9 but not in B12 cells act through the 5’- and/or 3’-UTRs of the VEGF transcript. A subset of the compounds selective for the VEGF UTRs was identified.

[4] = tested on: membrane bound VEGF (VEGF189 and VEGF206); assay: Western blot of membrane bound VEGF isoforms; assay type: cell-based, human
Experimental: Cells were treated with test compounds for the indicated times as shown in the Results section. Whole-cell extracts were obtained by lysing cells in M-PER lysis buffer (Pierce, Rockford, IL) containing 150 mM NaCl, 2 mM EDTA and 1x Halt protease inhibitors (Pierce). Samples were resolved on a Tris-glycine Criterion gel (Bio-Rad) and transferred onto a 0.45 μm nitrocellulose membrane. The membranes were then immunoblotted with specific antibodies as shown in the Results section: antibody (C1) specific for VEGF was purchased from Santa Cruz Biotechnologies (used at 1:200 dilution); and antibody specific for human β-actin was purchased from Abcam (Cambridge, MA) (1:10000 dilution). Immunodetection was done using the corresponding secondary antibodies conjugated with infrared dyes or horseradish peroxidase. The expression levels of proteins were quantified with Odyssey (LI-COR) or using enhanced chemiluminescence (Pierce).
The effect of PTC-858 on the levels of the soluble and membrane bound VEGF isoforms was characterized. The levels of the soluble VEGF isoforms (VEGF121 and VEGF165) were assessed from conditioned medium as described above. The effect of PTC-858 on the production of the high molecular weight, membrane bound isoforms (VEGF189 and VEGF206), was determined by Western blot analysis using a VEGF specific antibody. β-actin levels were used as an internal loading control. […]

[5] = tested on: HT1080 human tumor xenografts; assay: HT1080 human tumor xenograft growth in athymic nude mice; assay type: in vivo, mouse
Experimental: Log phase growing tumor cells (5–10 x 10^6 cells/mouse, depending on the cell line) were implanted subcutaneously in athymic nude mice. When the average tumor size reached the indicated size, mice were randomly divided into groups and administered vehicle (5% DMSO/ 95% PEG-300) or test compounds by oral gavage. Tumor volumes were measured twice per week using digital calipers and body weights once per week. Tumor volume was determined according to the formula: L x (W)^2/2, where L is the longest dimension and W is the shortest dimension.
These pharmaceutical properties enabled the testing of this compound in a human xenograft pharmacodynamic model in mice to measure modulation of intratumor VEGF levels. Established human HT1080 fibrosarcoma tumors grown as a xenograft in nude mice were treated with PTC-858 orally at a dose of 200 mg/kg, twice per day for 7 days. […] In addition, tumor growth was reduced by 25% after only 7 days of treatment.
Tumors in vehicle-treated mice reached an average volume of 1 cm^3 after 15 days, while tumors in mice treated with 10 mg/kg PTC-510 reached the same volume in about 40 days, a tumor growth delay of 25 days.

SMILES	CC50 at 48 hr ([1]; 48 hr) [µM]	CC50 at 3 days ([2]; read-out: PBMC cytoxtoxicity CC50) [µM]	VEGF UTR specificity [3]	effect on production of membrane bound VEGF189/206 (Western blot) ([4]; Fig 4c)	time for tumors to reach an average volume of 1 cm^3 ([5]; 10 mg/kg, oral, vehicle 15 days)	tumor growth delay ([5]; 10 mg/kg, oral, vs vehicle) [days]	mice with tumors that remained too small to measure (<50 mm^3) ([5]; 50 mg/kg group, 3/7 mice, on study more than 90 days) [%]	time for tumors to reach 1 cm^3 ([5]; 50 mg/kg, oral, dosing stopped at 50 days) [days]	effect of prolonged treatment on tumor growth ([5]; oral, 10 and 50 mg/kg)	CC50 at 72 hours ([1]; 72 hours, CellTiter-Glo) [µM]	selectivity ratio ([1]; CC50 vs VEGF ELISA IC50, read-out: selective index (CC50/IC50))	CC50 at 72 hours ([2]; 72 hours, CellTiter-Glo) [µM]	selectivity, VEGF reporter (B9) vs control reporter B12 cells ([3]; HEK293 stable luciferase reporter lines)	effect on level of membrane bound VEGF (Western blot) ([4]; HeLa cells (text b57), β-actin loading control)	tumor growth reduced ([5]; 200 mg/kg orally, twice per day, after 7 days of treatment) [%]
COc1ccc(C2c3[nH]c4ccc(Br)cc4c3CC3C(=O)N(C4CCCCC4)C(=S)N32)cc1.O=C(O)C(F)(F)F (stereo not drawn) [PTC-510, 9-bromo-2-cyclohexyl-5-(4-methoxyphenyl)-3-thioxo-2,3,5,6,11,11a-hexahydro-1H-imidazo[1’,5’:1,6]pyrido[3,4-b]indol-1-one trifluoroacetate]	0.2	> 30	yes	inhibits the production of the membrane bound VEGF189/206	about 40 days	25	43	> 50	reduced tumor growth significantly in a dose-dependent fashion						
Brc1ccc2[nH]c3c(c2c1)CCCC3n1cccc1 (stereo not drawn) [PTC-858, 6-bromo-1-(1H-pyrrol-1-yl)-2,3,4,9-tetrahydro-1H-carbazole]										1.7	> 200	> 30	greater than 2 log	reduced the level of membrane bound VEGF in HeLa cells in a dose-dependent fashion	25
